For 27 compounds, IC50 results are on record in patent US20210387968A1, “HETEROARYLMETHYLENE DERIVATIVES AS DNA POLYMERASE THETA INHIBITORS” (IDEAYA Biosciences, Inc., priority 2019, published 2021).

The term IC50 denotes the concentration that inhibits the measured activity by half. Lower therefore signals greater potency in that assay.

Bounds are passed on as bounds.

This test concerns the target T1, Pol theta polymerase domain (residues 1819-2590) (Homo sapiens, UniProt O75417).
T1 construct: Pol theta polymerase domain (residues 1819-2590) at a final concentration of 4 nM
T1 sequence (O75417 1819-2590): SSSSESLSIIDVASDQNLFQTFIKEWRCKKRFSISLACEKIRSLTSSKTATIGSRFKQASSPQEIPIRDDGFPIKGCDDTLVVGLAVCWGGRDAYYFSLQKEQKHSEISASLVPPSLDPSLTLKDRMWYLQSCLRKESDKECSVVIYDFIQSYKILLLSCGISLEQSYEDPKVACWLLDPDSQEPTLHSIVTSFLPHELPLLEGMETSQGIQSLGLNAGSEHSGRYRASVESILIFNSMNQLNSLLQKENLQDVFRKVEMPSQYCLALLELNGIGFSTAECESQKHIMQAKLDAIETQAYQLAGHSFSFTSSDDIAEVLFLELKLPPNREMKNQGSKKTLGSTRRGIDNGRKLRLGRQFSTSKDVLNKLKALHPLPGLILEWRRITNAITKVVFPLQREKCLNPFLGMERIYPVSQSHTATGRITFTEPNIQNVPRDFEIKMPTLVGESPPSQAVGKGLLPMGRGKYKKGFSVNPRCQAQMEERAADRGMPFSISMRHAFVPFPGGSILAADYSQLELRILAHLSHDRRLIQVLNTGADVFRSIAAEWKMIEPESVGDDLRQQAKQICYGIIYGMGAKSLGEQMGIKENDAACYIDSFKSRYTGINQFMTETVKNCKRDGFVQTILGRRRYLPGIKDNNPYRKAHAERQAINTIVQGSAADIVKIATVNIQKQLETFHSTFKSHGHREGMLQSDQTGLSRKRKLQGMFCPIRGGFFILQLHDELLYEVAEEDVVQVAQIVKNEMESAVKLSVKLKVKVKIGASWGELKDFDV
Description: Pol theta polymerase primer extension assay (molecular beacon fluorescence). The class given is biochemical. To be noted: 4 nM enzyme, 15 min pre-incubation, fluorescence change over 30 min. Here is the method: The ability of the compounds of Formula (I) to inhibit polymerase activity of Pol theta was determined using the assay described below.
A mixture of 20 uL of Pol theta polymerase domain (residues 1819-2590) at a final concentration of 4 nM in assay buffer (20 m M TRIS, pH 7.80, 50 mM KCl, 10 mM MgCl2, 1 mM DTT, 0.01% BSA, 0.01% Tween20) was added to test compounds (11-point dilution series of test compounds) except the low control wells without test compounds. The above enzyme and test compound inhibitor mixture was then incubated at room temperature for 15 min. An equal volume (20 μl) of dNTP substrate mix (48 μM) and primed molecular beacon DNA (obtained by annealing template SEQ ID NO 2: (5′-CCTTCCTCCCGTGTCTTG-TACCTTCCCGTCA-GGAGGAAGG-3′) with 5′-TAMRA and 3′-BHQ and primer DNA (SEQ ID NO 3: 5′-GACGGGAAGG-3′) in 10 mM Tris-HCl pH 8.0, 100 mM NaCl buffer) (96 nM) in assay buffer was added to all the test wells. The inhibition activity was measured by monitoring the fluorescence change over 30 min at 535 nm upon excitation at 485 nm. The high control (DMSO with enzyme) with high fluorescence intensity represents no inhibition of polymerase reaction while the low control (DMSO with buffer) with low fluorescence intensity represents full inhibition of polymerase activity. Slope of the reaction progress curves were used to calculate the rate of polymerization. The rates were used to determine the percent inhibition using a four-parameter inhibition model to generate IC50, Hill slope and max inhibition.
Turning to “2-([[1-(4-fluorophenyl)-4- (trifluoromethyl)imidazol-2- yl]methyl]amino)-4,6- bis(trifluoromethyl)benzonitrile [compound 9]”, the IC50 is under 200 nM.
`Cc1nc(OCc2nccn2-c2ccccc2)c(C#N)c(C)c1Cl` [compound 1, 5-chloro-4,6-dimethyl-2-((1-phenyl-1H-imidazol-2-yl)methoxy)-nicotinonitrile] yielded a half-inhibitory concentration (IC50) of 500 to 1000 nM.
`Cc1nc(NCc2nccn2-c2ccccc2)c(C#N)c(C)c1Cl` [compound 2, 5-chloro-4,6-dimethyl-2-((1-phenyl-1H-imidazol-2-yl)methylamino)-nicotinonitrile] gave an IC50 of under 200 nM.
`Cc1nc(NCc2nccn2-c2ccc(F)cc2)c(C#N)c(C)c1Cl` [compound 3, 5-chloro-2-(((1-(4-fluorophenyl)-1H-imidazol-2-yl)methyl)amino)-4,6-dimethyl-nicotinonitrile] displayed an IC50 of under 200 nM.
`Fc1ccc(-n2ccnc2CNc2cc(Cl)cc(C(F)(F)F)c2)cc1` [compound 4, 3-chloro-N-((1-(4-fluorophenyl)-1H-imidazol-2-yl)methyl)-5-(trifluoromethyl)-benzenamine] registered a concentration for half-maximal inhibition (IC50) of under 200 nM.
Under `N#Cc1c(C(F)(F)F)cc(C(F)(F)F)nc1NCc1nccn1-c1ccc(F)cc1` [compound 5, 2-([[1-(4-fluorophenyl)-1H-imidazol-2-yl]methyl]amino)-4,6-bis(trifluoromethyl)-pyridine-3-carbonitrile] stands under 200 nM; under `COc1ccc(-n2ccnc2CNc2nc(C(F)(F)F)cc(C(F)(F)F)c2C#N)cc1` [compound 6, 2-([[1-(4-methoxyphenyl)-1H-imidazol-2-yl]methyl]amino)-4,6-bis(trifluoromethyl)-pyridine-3-carbonitrile], under 200 nM.
The same measure for `N#Cc1c(C(F)(F)F)cc(C(F)(F)F)nc1NCc1nccn1Cc1ccc(F)cc1` [compound 7, 2-[([1-[(4-fluorophenyl)methyl]-1H-imidazol-2-yl]methyl)amino]-4,6-bis-(trifluoromethyl)pyridine-3-carbonitrile]: under 200 nM; for `N#Cc1c(C(F)(F)F)cc(C(F)(F)F)nc1OCc1nccn1-c1ccc(F)cc1` [compound 8, 2-[[1-(4-fluorophenyl)-1H-imidazol-2-yl]methoxy]-4,6-bis(trifluoromethyl)-pyridine-3-carbonitrile]: under 200 nM; for `N#Cc1c(C(F)(F)F)cc(C(F)(F)F)nc1NCc1nccnc1-c1ccc(F)cc1` [compound 10, 2-((3-(4-fluorophenyl)pyrazin-2-yl)methylamino)-4,6-bis(trifluoromethyl)-nicotinonitrile]: under 200 nM.
Take `N#Cc1c(C(F)(F)F)cc(C(F)(F)F)nc1NCc1ncncc1-c1ccc(F)cc1` [compound 11, 2-((5-(4-fluorophenyl)pyrimidin-4-yl)methylamino)-4,6-bis(trifluoromethyl)-nicotinonitrile]: the IC50 is under 200 nM.
In turn, `N#Cc1c(C(F)(F)F)cc(C(F)(F)F)nc1NCc1nncn1-c1ccc(F)cc1` [compound 12, 2-((4-(4-fluorophenyl)-4H-1,2,4-triazol-3-yl)methylamino)-4,6-bis(trifluoromethyl)-nicotinonitrile] came in with an IC50 of under 200 nM.
Consider `CC(Nc1nc(C(F)(F)F)cc(C(F)(F)F)c1C#N)c1nccn1-c1ccc(F)cc1` (stereo not drawn) [compound 13, 2-([1-[1-(4-fluorophenyl)imidazol-2-yl]ethyl]amino)-4,6-bis(trifluoromethyl)pyridine-3-carbonitrile], for which the IC50 was under 200 nM.
Turning to `Cn1cc(-c2ccc(F)cc2)c(CNc2nc(C(F)(F)F)cc(C(F)(F)F)c2C#N)n1` [compound 14, 2-(((4-(4-fluorophenyl)-1-methyl-1H-pyrazol-3-yl)methyl)amino)-4,6-bis(trifluoromethyl)nicotinonitrile], the IC50 was in the range of 1000 to 10000 nM.
The compound `N#Cc1c(C(F)(F)F)cc(C(F)(F)F)nc1NCc1n[nH]cc1-c1ccc(F)cc1` [compound 15, 2-(((4-(4-fluorophenyl)-1H-pyrazol-3-yl)methyl)amino)-4,6-bis(trifluoromethyl)-nicotinonitrile] gave a half-inhibitory concentration (IC50) of 1000 to 10000 nM.
Take `N#Cc1c(C(F)(F)F)cc(C(F)(F)F)nc1NCc1ncccc1-c1ccc(F)cc1` [compound 16, 2-(((3-(4-fluorophenyl)pyridin-2-yl)methyl)amino)-4,6-bis(trifluoromethyl)-nicotinonitrile]: the half-inhibitory concentration (IC50) was under 200 nM.
Consider `N#Cc1c(C(F)(F)F)cc(C(F)(F)F)nc1NCc1nccnc1-c1ccc(F)cc1Cl` [compound 17, 2-([[3-(2-chloro-4-fluorophenyl)-pyrazin-2-yl]methyl]amino)-4,6-bis(trifluoromethyl)pyridine-3-carbonitrile], for which the concentration for half-maximal inhibition (IC50) is 500 to 1000 nM.
Turning to `N#Cc1c(C(F)(F)F)cc(C(F)(F)F)nc1NCc1ncncc1-c1ccncc1` [compound 18, 2-([[5-(pyridin-4-yl)pyrimidin-4-yl]methyl]amino)-4,6-bis(trifluoro-methyl)pyridine-3-carbonitrile], the IC50 was 1000 to 10000 nM.
Compound `N#Cc1c(C(F)(F)F)cc(C(F)(F)F)nc1OCc1ncccc1-c1ccc(F)cc1` [compound 19, 2-[[3-(4-fluorophenyl)pyridin-2-yl]methoxy]-4,6-bis(trifluoromethyl)pyridine-3-carbonitrile] displayed an IC50 of under 200 nM.
`Cc1ccc(-c2ccc(F)cc2)c(CNc2nc(C(F)(F)F)cc(C(F)(F)F)c2C#N)n1` [compound 20, 2-([[3-(4-fluorophenyl)-6-methylpyridin-2-yl]methyl]amino)-4,6-bis(trifluoromethyl)pyridine-3-carbonitrile]: the IC50 was under 200 nM.
With `N#Cc1c(C(F)(F)F)cc(C(F)(F)F)nc1NCc1nccnc1-c1ccccn1` [compound 21, 2-(((3-(pyridin-2-yl)pyrazin-2-yl)methyl)amino)-4,6-bis(trifluoromethyl)-nicotinonitrile], the concentration for half-maximal inhibition (IC50) was 200 to 500 nM.
`N#Cc1c(C(F)(F)F)cc(C(F)(F)F)nc1NCc1ncccc1-c1ccccn1` [compound 22] showed an IC50 of under 200 nM.
As to `N#Cc1c(C(F)(F)F)cc(C(F)(F)F)nc1NCc1nc(O)ccc1-c1ccc(F)cc1` [compound 23, 2-([[3-(4-fluorophenyl)-6-oxo-1H-pyridin-2-yl]methyl]amino)-4,6-bis(trifluoro-methyl)pyridine-3-carbonitrile], the IC50 was under 200 nM.
As to `N#Cc1ccc(-c2ccc(F)cc2)c(CNc2nc(C(F)(F)F)cc(C(F)(F)F)c2C#N)n1` [compound 24, 6-([[3-cyano-4,6-bis(trifluoromethyl)pyridin-2-yl]amino]methyl)-5-(4-fluorophenyl)pyridine-2-carbonitrile], the 50% inhibitory concentration (IC50) is under 200 nM.
Consider `N#Cc1c(C(F)(F)F)cc(C(F)(F)F)nc1NCc1ncccc1-c1ccc(Br)cc1` [compound 25, 2-([[3-(4-bromophenyl)pyridin-2-yl]methyl]amino)-4,6-bis(trifluoromethyl)-pyridine-3-carbonitrile], for which the IC50 is under 200 nM.
Regarding `N#Cc1c(C(F)(F)F)cc(C(F)(F)F)nc1NCc1ncnn1-c1ccc(F)cc1` [compound 26, 2-(((1-(4-fluorophenyl)-1H-1,2,4-triazol-5-yl)methyl)amino)-4,6-bis(trifluoro-methyl)nicotinonitrile], the concentration for half-maximal inhibition (IC50) fell in the range of 200 to 500 nM.
With `COc1ccc(-c2ccc(F)cc2)c(CNc2nc(C(F)(F)F)cc(C(F)(F)F)c2C#N)n1` [compound 27, 2-([[3-(4-fluorophenyl)-6-methoxypyridin-2-yl]methyl]amino)-4,6-bis(trifluoromethyl)pyridine-3-carbonitrile], the concentration for half-maximal inhibition (IC50) is 1000 to 10000 nM.
